ChEMBL document CHEMBL1201862, “PubChem BioAssay data set” (2004)
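Values below derive from 48-hour exposures of cells grown in 96-well plates, with endpoints linearly interpolated between the two concentrations bracketing the appropriate inhibition level. The concentration for 50% growth inhibition is given as GI50.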 The source made the active and inactive calls. Rule as the data show it: active = GI50 up to about 1.1 µM and inactive = higher.

Legend:
Experiment in all cases: inhibition of tumour cell growth, NCI panel, 48 h
OVCAR-8 = system: OVCAR-8
EKVX = system: EKVX
HCT-116 = system: HCT-116
HOP-62 = system: HOP-62
UACC-257 = system: UACC-257
SK-MEL-5 = system: SK-MEL-5
SNB-19 = system: SNB-19
HOP-92 = system: HOP-92
SK-MEL-2 = system: SK-MEL-2
SW-620 = system: SW-620
ACHN = system: ACHN
NCI-H226 = system: NCI-H226
IGROV-1 = system: IGROV-1
DMS-114 = system: DMS-114

Row | SMILES | GI50 (OVCAR-8) | GI50 (EKVX) | GI50 (HCT-116) | GI50 (HOP-62) | GI50 (UACC-257) | GI50 (SK-MEL-5) | GI50 (SNB-19) | GI50 (HOP-92) | GI50 (SK-MEL-2) | GI50 (SW-620) | GI50 (ACHN) | GI50 (NCI-H226) | GI50 (IGROV-1) | GI50 (DMS-114)
1 | Nc1c(C(=O)Nc2ccccc2O)[n+]([O-])c2ccccc2[n+]1[O-] | 64.1 µM (inactive) | > 100 µM (inactive) | 31.7 µM (inactive) | > 100 µM (inactive) | 18.8 µM (inactive) | 14.7 µM (inactive) | > 100 µM (inactive) | > 100 µM (inactive) | 40.2 µM (inactive) | 21 µM (inactive) | 87.5 µM (inactive) | > 100 µM (inactive) | 81.5 µM (inactive) | 20.5 µM (inactive)
2 | Cc1cc(=O)oc2cc(OCc3nc4ccccc4c(=O)[nH]3)ccc12 | > 100 µM (inactive) | > 100 µM (inactive) | > 100 µM (inactive) | > 100 µM (inactive) | – | > 100 µM (inactive) | > 100 µM (inactive) | > 100 µM (inactive) | > 100 µM (inactive) | > 100 µM (inactive) | > 100 µM (inactive) | > 100 µM (inactive) | > 100 µM (inactive) | > 100 µM (inactive)
3 | CCC12C[N+]3([O-])CCc4c([nH]c5ccccc45)C(C(=O)OC)(c4cc5c(cc4OC)N(C)C4C(O)(C(=O)OC)C(OC(C)=O)C6(CC)C=CCN7CCC54C76)CC(C3)C1O2 (stereo unspecified) | 2.67 µM (inactive) | 0.467 µM (active) | 0.41 µM (active) | 23.7 µM (inactive) | 7.01 µM (inactive) | 0.288 µM (active) | 0.597 µM (active) | 0.594 µM (active) | 0.234 µM (active) | 0.598 µM (active) | 10.5 µM (inactive) | – | 0.968 µM (active) | 0.36 µM (active)
4 | O=C1C(=O)N(c2nccs2)C(=O)C(=O)C1c1nc2ccccc2s1 | > 100 µM (inactive) | > 100 µM (inactive) | > 100 µM (inactive) | > 100 µM (inactive) | > 100 µM (inactive) | – | > 100 µM (inactive) | > 100 µM (inactive) | > 100 µM (inactive) | > 100 µM (inactive) | > 100 µM (inactive) | > 100 µM (inactive) | > 100 µM (inactive) | > 100 µM (inactive)
5 | O=C(OCc1ccccc1)n1cccc1 | > 100 µM (inactive) | > 100 µM (inactive) | 84.9 µM (inactive) | > 100 µM (inactive) | > 100 µM (inactive) | > 100 µM (inactive) | > 100 µM (inactive) | > 100 µM (inactive) | > 100 µM (inactive) | > 100 µM (inactive) | > 100 µM (inactive) | > 100 µM (inactive) | > 100 µM (inactive) | 55.2 µM (inactive)
6 | COc1ccccc1-c1cc(=O)c2cc(C)c(C)c(C(=O)O)c2o1 | > 100 µM (inactive) | > 100 µM (inactive) | > 100 µM (inactive) | > 100 µM (inactive) | > 100 µM (inactive) | > 100 µM (inactive) | > 100 µM (inactive) | > 100 µM (inactive) | > 100 µM (inactive) | > 100 µM (inactive) | > 100 µM (inactive) | – | > 100 µM (inactive) | > 100 µM (inactive)
7 | O=C1N(c2ccc(Cl)cc2)C(=O)C2(SC=NN2Cc2ccccc2)N1c1ccc(Cl)cc1 (stereo unspecified) | > 100 µM (inactive) | > 100 µM (inactive) | 9.18 µM (inactive) | > 100 µM (inactive) | > 100 µM (inactive) | > 100 µM (inactive) | > 100 µM (inactive) | > 100 µM (inactive) | – | > 100 µM (inactive) | > 100 µM (inactive) | > 100 µM (inactive) | > 100 µM (inactive) | 12.3 µM (inactive)
8 | CC1(Cc2ccccc2)NC(=S)NC1=O (stereo unspecified) | > 100 µM (inactive) | > 100 µM (inactive) | – | > 100 µM (inactive) | > 100 µM (inactive) | – | > 100 µM (inactive) | 3.03 µM (inactive) | > 100 µM (inactive) | > 100 µM (inactive) | > 100 µM (inactive) | > 100 µM (inactive) | – | > 100 µM (inactive)
9 | C/C(=N\NC(=S)NC(CCC(=O)O)C(=O)O)c1ccccn1 (stereo unspecified) | > 100 µM (inactive) | > 100 µM (inactive) | > 100 µM (inactive) | > 100 µM (inactive) | > 100 µM (inactive) | > 100 µM (inactive) | > 100 µM (inactive) | > 100 µM (inactive) | > 100 µM (inactive) | > 100 µM (inactive) | > 100 µM (inactive) | > 100 µM (inactive) | > 100 µM (inactive) | > 100 µM (inactive)
10 | COc1cc(/C=C2\NC(=O)C3Cc4c(OC)c(C)c(OC)c(OC)c4C2N3C)c(OC)c(C)c1OC (stereo unspecified) | > 100 µM (inactive) | > 100 µM (inactive) | > 100 µM (inactive) | > 100 µM (inactive) | > 100 µM (inactive) | > 100 µM (inactive) | > 100 µM (inactive) | > 100 µM (inactive) | – | > 10 µM (inactive) | > 100 µM (inactive) | > 100 µM (inactive) | > 100 µM (inactive) | > 100 µM (inactive)
11 | COC1=CC(=O)C(Br)=CC1=O | 26.9 µM (inactive) | 25.1 µM (inactive) | – | > 100 µM (inactive) | 17.3 µM (inactive) | 17.9 µM (inactive) | 17.8 µM (inactive) | 15.9 µM (inactive) | 20.5 µM (inactive) | 23.2 µM (inactive) | – | – | 17.3 µM (inactive) | 20.5 µM (inactive)
12 | CSc1nc2c(nc(N)n2C2OC(CO)C(O)C(O)C2O)c(=O)[nH]1 (stereo unspecified) | > 100 µM (inactive) | > 100 µM (inactive) | > 100 µM (inactive) | > 100 µM (inactive) | > 100 µM (inactive) | > 100 µM (inactive) | > 100 µM (inactive) | > 100 µM (inactive) | – | > 100 µM (inactive) | > 100 µM (inactive) | > 100 µM (inactive) | > 100 µM (inactive) | > 100 µM (inactive)
13 | O=c1[nH]c(=O)n(C2OC(COP(=O)(O)OP(=O)(O)OC3OC(CO)C(O)C(O)C3O)C(O)C2O)cc1F (stereo unspecified) | 0.0966 µM (active) | 1.12 µM (inactive) | < 0.0129 µM (active) | 0.302 µM (active) | 0.615 µM (active) | 0.407 µM (active) | 0.156 µM (active) | 1.12 µM (active) | 0.486 µM (active) | 0.0504 µM (active) | 0.0217 µM (active) | 0.148 µM (active) | 0.125 µM (active) | 1.13 µM (inactive)
14 | CC(C)C1=CC23CCC4C(C)(C(=O)O)CCCC4(C)C2CC1C1C(=O)N(c2ccccc2)C(=O)C13 (stereo unspecified) | 64 µM (inactive) | – | 39.1 µM (inactive) | 51.3 µM (inactive) | 26.1 µM (inactive) | 44.2 µM (inactive) | 46.9 µM (inactive) | 32.7 µM (inactive) | 20.1 µM (inactive) | 54 µM (inactive) | 28.1 µM (inactive) | 15.5 µM (inactive) | 37.2 µM (inactive) | 35.4 µM (inactive)
15 | CC1=C2C(=CC(C)(C)C2O)C(=O)C(C)(O)C12CC2 (stereo unspecified) | 0.00948 µM (active) | 0.0356 µM (active) | 0.00325 µM (active) | 0.0119 µM (active) | 0.014 µM (active) | 0.00567 µM (active) | 0.019 µM (active) | 0.0167 µM (active) | 0.0121 µM (active) | 0.00305 µM (active) | 0.00479 µM (active) | 0.033 µM (active) | 0.0153 µM (active) | 0.00794 µM (active)
